A short description of data set [1]: Brain slice method, unbound volume of distribution in the brain (rat). It is filed as in vitro ADME. Conditions: SD rat brain slices, 5 h incubation at 37°C; mean (standard deviation).
Text: (§1) Drug-naïve male Sprague–Dawley 250–300 g rats and Naval Medical Research Institute (NMRI) 25–30 g mice were used (Taconic, Lille Skensved, Denmark).
(§2) The composition of artificial cerebrospinal fluid or extracellular fluid (aECF) is crucial. […] Ascorbic acid is used as a natural free-radical scavenger to protect the cell membranes from lipid peroxidation and the brain slices from swelling [21].
(§3) When deciding on the compounds of each cassette, the pKa values of the compounds should be taken into account. Because high concentrations of weak bases can increase the pH of the acidic intracellular compartments, the extent of lysosomal trapping of a weak base could be affected by the existence of another weak base. […] Consequently, it is recommended that the final aECF concentration of each studied compound in the cassette should be 100–200 nM and the total concentration of the studied compounds should not exceed 1 μM [18].
(§4) Drug-naïve rats/mice are anesthetized with inhalation anesthesia using 5% isoflurane. When deep anesthesia is reached, up to 10 ml of blood (rats) is collected intracardially. The animal is then decapitated and the skull quickly opened. The isolated brain is immediately placed into blank ice-cold aECF saturated with oxygen. In our experience, the brains should be sliced within 15–20 minutes of harvesting to retain their viability.
(§5) After discarding the first one or two brain slices, 6 (rat brain) or 10 (mouse brain) consecutive 300 μm brain slices are cut on a coronal plane, starting approximately 1.7 mm anterior to the bregma (rostral striatum).
(§6) The incubation-equilibration process is started by gently transferring the 6 (rat) or 10 (mouse) brain slices from the storage beaker (using a micro double-ended spatula) into one 45 mm high, 80 mm diameter, flat-bottomed glass beaker (Duran Group, VWR, Sweden) containing 15 ml (rat) or 10 ml (mouse) of the aECF containing the selection of drugs to be investigated (Figure 1C). The beaker is then filled with humidified 100% oxygen over the aECF and covered with a custom-fabricated lid (Figure 1D) composed of a Teflon fluorinated ethylene-propylene (FEP) film (50 Å, 12.7 μm thick; DuPont, Katco Ltd, UK) as designed by Potter and DeMarse with minor modifications [23]. A “blank” beaker is also incubated in parallel to check stability of the compounds added into the buffer.
(§7) Finally, the beaker is placed inside the small plastic box in the incubated shaker (e.g. MaxQ4450 Thermo Fisher Scientific, NinoLab, Sweden) for 5 h at 37°C (Figure 1E). Control of the temperature by an external thermometer is recommended. A rotation speed of 45 rpm and oxygen flow of about 75–80 ml per minute through a glass frit apparatus appear sufficient.
(§8) Since the unbound drug concentration in the brain slice interstitial fluid at equilibrium is taken to be equal to the drug concentration in the aECF in the beaker, the presence of any minor debris from the brain tissue should be avoided in the sampled aECF after the 5 h incubation. To achieve this, the beaker needs to sit still for 5 minutes after finishing the incubation before sampling the aECF.
A short description of data set [2]: Brain slice method, unbound volume of distribution in the brain (mouse). Conditions: NMRI mouse brain slices, 5 h incubation at 37°C; mean (standard deviation).
Text: as §1, §2, §3, §4, §5, §6, §7, §8
Data set [3] in a line: Unbound brain-to-plasma concentration ratio (Kp,uu,brain), BBB net flux, from Kp,brain, Vu,brain and fu,plasma. To be noted: Kp,brain corrected for brain tissue uptake (Vu,brain from brain slice method) and plasma protein binding (fu,plasma). The source says:
It has been proposed by Fridén et al. that in vitro determination of Vu,brain in combination with in vivo determination of the total brain-to-plasma concentration ratio (Kp,brain) and in vitro determination of the fraction of unbound drug in plasma (fu,plasma) would allow rapid evaluation of unbound brain-to-plasma concentration ratio (Kp,uu,brain) (Figure 2). Moreover, combining Vu,brain with fu,brain would allow estimation of the unbound intracellular-to-extracellular concentration ratio (Kp,uu,cell). It is essential to emphasize that, in terms of predicting Cu,brainISF or Kp,uu,brain, rank ordering of compounds with respect to Vu,brain is futile, since there is no causal relationship.
Complex evaluation of the abovementioned neuropharmacokinetic parameters gives insight to drug distribution in the brain. For instance, analogue of γ-aminobutyric acid gabapentin has Kp,brain equal to 0.64 [26]. However, after correction of Kp,brain for brain tissue uptake (using Vu,brain derived from the brain slice method) and plasma protein binding (using fu,plasma) the BBB net flux was estimated as a 0.14 meaning that only 14% of unbound drug in plasma is passing the BBB. Moreover, after passing BBB gabapentin (substrate to the large neutral amino acid transporter) tends to accumulate in the cells as it could be judged from Kp,uu,cell equal to 4.55 [6].

For data set [4] the following is noted: cited from earlier work.
For data set [5] the following is noted: cited from earlier work. This is another data set of the same source.

Structures are written as SMILES.

`CSc1ccc2c(c1)N(CCC1CCCCN1C)c1ccccc1S2` (stereo not shown) [Thioridazine]: the “Vu,brain” value in data set [1] is 2650 (232) ml·g brain^-1; in data set [2], 1930 (170) ml·g brain^-1.

Regarding `CC(=O)O[C@@]12CO[C@@H]1C[C@H](O)[C@@]1(C)C(=O)[C@H](O)C3=C(C)[C@@H](OC(=O)[C@H](O)[C@@H](NC(=O)OC(C)(C)C)c4ccccc4)C[C@@](O)([C@@H](OC(=O)c4ccccc4)[C@H]21)C3(C)C` [Docetaxel], the “Vu,brain” value in data set [1] was 777 (217) ml·g brain^-1; in data set [2], 796 (177) ml·g brain^-1.

Consider `Fc1ccc([C@@H]2CCNC[C@H]2COc2ccc3c(c2)OCO3)cc1` [Paroxetine], for which the “Vu,brain” value in data set [1] was 714 (72) ml·g brain^-1; in data set [2] it was 596 (97) ml·g brain^-1.

Consider `NCC1(CC(=O)O)CCCCC1` [Gabapentin], for which the Kp uu in data set [3] stood at 0.14. For the same compound, the “Vu,brain” value in data set [1] is given as 4.49 (0.29) ml·g brain^-1; in data set [2], 4.22 (0.93) ml·g brain^-1. Besides, in data set [4], the “Kp,brain (total brain-to-plasma concentration ratio)” value is on record as 0.64. For the same compound, the “Kp,uu,cell (unbound intracellular-to-extracellular concentration ratio)” value in data set [5] was 4.55.

Turning to `COc1ccc2c(c1)c(CC(=O)O)c(C)n2C(=O)c1ccc(Cl)cc1` [Indomethacin], the “Vu,brain” value in data set [1] is reported as 14.1 (1.8) ml·g brain^-1; in data set [2] it was 12.0 (1.8) ml·g brain^-1.
